Results: patent US20250145665A1, “MACROCYCLIC PEPTIDES USEFUL AS MODULATORS OF TNF ALPHA” (Bristol-Myers Squibb Company, priority 2023, published 2025)
pIC50: −log10 of the molar value. Like-named read-outs stand apart in the source and are kept apart here. Starred links: 1 amine or outer side, 2 acyl side, 3 side chain; linkers in the order of their positions; H or OH if unused. Positions of bridges follow the written chain, without caps; N, C: chain ends. Non-standard residues stand in square brackets, D forms with d. Residues, ends and D or L forms follow the SMILES beside them. ξ: configuration not given here. *: point of attachment. X56 = O=C(O)COc1cccc(NC(=O)c2ccc(-c3ccc(C[C@H](N[*:1])C(=O)[*:2])cc3)cc2)c1; Bip(4'-NH) = O=C([C@H](Cc1ccc(-c2ccc(N[*:3])cc2)cc1)N[*:1])[*:2]; Bip(4'-CONHMe) = CNC(=O)c1ccc(-c2ccc(C[C@H](N)C(=O)O)cc2)cc1; Indazole3carbonyl(1-CH2COOH) = O=C(O)Cn1nc(C(=O)*)c2ccccc21; Bip(4'-COOH) = N[C@@H](Cc1ccc(-c2ccc(C(=O)O)cc2)cc1)C(=O)O; X29 = N=C(NCCC[C@@H](N[*:1])C(=O)[*:2])NCCc1ccc(F)c(F)c1; Trp(1-CH2COOH) = N[C@@H](Cc1cn(CC(=O)O)c2ccccc12)C(=O)O; Ala(imidazol-2-yl) = N[C@@H](Cc1ncc[nH]1)C(=O)O; Ala(morpholin-4-yl) = N[C@@H](CN1CCOCC1)C(=O)O; Benzoyl(3-OCH2COOH) = O=C(O)COc1cccc(C(=O)*)c1; Bip = N[C@@H](Cc1ccc(-c2ccccc2)cc1)C(=O)O; X81 = N[C@@H](Cc1ccc(OCC(=O)O)cc1)C(=O)*; X60 = O=C(c1ccc2c(c1)CCc1ccccc1-2)*; X61 = O=C(c1ccc2c(c1)Cc1ccccc1-2)*; Cha = N[C@@H](CC1CCCCC1)C(=O)O; Tle = CC(C)(C)[C@H](N)C(=O)O; ξP = O=C(O)C1CCCN1; Sar = CNCC(=O)O

Target: TNFα (Homo sapiens, UniProt P01375)
Experiment: TNF-Induced HEK-Blue Assay
Assay type: cell-based
[1] = HEK-Blue-CD40L cells, NF-kB-driven secreted alkaline phosphatase reporter, TNFα 0.5 ng/ml, 18 h, read-out: TNF induced HEK-Blue assay IC50 value

Chain of TNFα (P01375 77-233 limits assumed): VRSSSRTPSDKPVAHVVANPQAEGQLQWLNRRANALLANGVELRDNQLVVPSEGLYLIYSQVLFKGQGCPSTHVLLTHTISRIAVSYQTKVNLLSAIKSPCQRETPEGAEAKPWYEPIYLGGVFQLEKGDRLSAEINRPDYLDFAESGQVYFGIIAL

In the case of `CC[C@H](C)[C@@H]1NC(=O)[C@@H]2CCCN2C(=O)[C@H]([C@@H](C)CC)NC(=O)[C@@H](CCCNC(=N)N)NC(=O)[C@H](CC(=O)O)NC(=O)[C@H](Cc2ccccc2)NC(=O)CN(C)C(=O)[C@H](Cc2ccc(-c3ccc(NC(=O)c4ccc5c(c4)Cc4ccccc4-5)cc3)cc2)NC(=O)[C@H](Cc2ccc(-c3ccc(C(=O)O)cc3)cc2)NC(=O)[C@H](C(C)(C)C)NC(=O)CSC[C@@H](C(=O)NCC(N)=O)NC(=O)[C@H](CC(C)C)NC(=O)[C@H](Cc2cnc[nH]2)NC1=O` [Example 418] ({CH2CO}-[Tle][Bip(4'-COOH)][Bip(4'-NH)](X61)[Sar]FD[dR]IPIHLCG-NH2; thioether N-13), the pIC50 [1] was 6.70 to 7.30.
In the case of `CC[C@H](C)[C@@H]1NC(=O)C2CCCN2C(=O)[C@H]([C@@H](C)CC)NC(=O)[C@@H](CCCNC(=N)N)NC(=O)[C@H](CC(=O)O)NC(=O)[C@H](Cc2ccccc2)NC(=O)CN(C)C(=O)[C@H](Cc2ccc(-c3ccc(NC(=O)c4ccc5c(c4)CCc4ccccc4-5)cc3)cc2)NC(=O)[C@H](Cc2ccc(-c3ccc(C(=O)O)cc3)cc2)NC(=O)[C@H](C(C)(C)C)NC(=O)CSC[C@@H](C(=O)NCC(N)=O)NC(=O)[C@H](CC(C)C)NC(=O)[C@H](Cc2ncc[nH]2)NC1=O` (stereo partly shown) [Example 419] ({CH2CO}-[Tle][Bip(4'-COOH)][Bip(4'-NH)](X60)[Sar]FD[dR]I[ξP]I[Ala(imidazol-2-yl)]LCG-NH2; thioether N-13), the pIC50 [1] was 5.70 to 6.70.
In the case of `CC[C@H](C)[C@@H]1NC(=O)[C@@H](CCCNC(=N)N)NC(=O)[C@H](CC(=O)O)NC(=O)[C@H](Cc2cnc[nH]2)NC(=O)CN(C)C(=O)[C@H](Cc2ccc(-c3ccc(NC(=O)[C@@H](N)Cc4cn(CC(=O)O)c5ccccc45)cc3)cc2)NC(=O)[C@H](Cc2ccc(-c3ccccc3)cc2)NC(=O)[C@H](CC2CCCCC2)NC(=O)CSC[C@@H](C(=O)NCC(N)=O)NC(=O)[C@H](CC(C)C)NC(=O)[C@H](Cc2ncc[nH]2)NC(=O)[C@H](C(C)C)NC(=O)C2CCCN2C1=O` (stereo partly shown) [Example 420] ({CH2CO}-[Cha][Bip][Bip(4'-NH)](Trp(1-CH2COOH))[Sar]HD[dR]I[ξP]V[Ala(imidazol-2-yl)]LCG-NH2; thioether N-13), the pIC50 [1] was 6.70 to 7.30.
Compound `CC[C@H](C)[C@@H]1NC(=O)C2CCCN2C(=O)[C@H]([C@@H](C)CC)NC(=O)[C@@H](CCCNC(=N)N)NC(=O)[C@H](CC(=O)O)NC(=O)[C@H](Cc2ccccc2)NC(=O)CN(C)C(=O)[C@H](Cc2ccc(-c3ccc(NC(=O)[C@@H](N)Cc4ccc(OCC(=O)O)cc4)cc3)cc2)NC(=O)[C@H](Cc2ccc(-c3ccc(C(=O)O)cc3)cc2)NC(=O)[C@H](C(C)(C)C)NC(=O)CSC[C@@H](C(=O)NCC(N)=O)NC(=O)[C@H](CC(C)C)NC(=O)[C@H](Cc2ncc[nH]2)NC1=O` (stereo partly shown) [Example 421] ({CH2CO}-[Tle][Bip(4'-COOH)][Bip(4'-NH)](X81)[Sar]FD[dR]I[ξP]I[Ala(imidazol-2-yl)]LCG-NH2; thioether N-13) has a pIC50 [1] of 6.70 to 7.30.
`CC[C@H](C)[C@@H]1NC(=O)[C@@H](CCCNC(=N)N)NC(=O)[C@H](CC(=O)O)NC(=O)[C@H](Cc2cnc[nH]2)NC(=O)CN(C)C(=O)[C@H](Cc2ccc(-c3ccc(NC(=O)c4cccc(OCC(=O)O)c4)cc3)cc2)NC(=O)[C@H](Cc2ccc(-c3ccc(C(=O)Nc4cccc(OCC(=O)O)c4)cc3)cc2)NC(=O)[C@H](CC2CCCCC2)NC(=O)CSC[C@@H](C(=O)NCC(N)=O)NC(=O)[C@H](CC(C)C)NC(=O)[C@H](Cc2ncc[nH]2)NC(=O)[C@H](C(C)C)NC(=O)C2CCCN2C1=O` (stereo partly shown) [Example 422] ({CH2CO}-[Cha][X56][Bip(4'-NH)](Benzoyl(3-OCH2COOH))[Sar]HD[dR]I[ξP]V[Ala(imidazol-2-yl)]LCG-NH2; thioether N-13) was tested, and the pIC50 [1] was greater than 7.30.
`CC(C)C[C@@H]1NC(=O)[C@H](CCCNC(=N)N)NC(=O)[C@H](C(C)C)NC(=O)[C@@H]2CCCN2C(=O)[C@H](C(C)C)NC(=O)[C@@H](CCCNC(=N)NCCc2ccc(F)c(F)c2)NC(=O)[C@H](CC(=O)O)NC(=O)[C@@H]2CCCN2C(=O)CN(C)C(=O)[C@H](Cc2ccc(-c3ccc(NC(=O)c4nn(CC(=O)O)c5ccccc45)cc3)cc2)NC(=O)[C@H](Cc2ccc(-c3ccccc3)cc2)NC(=O)[C@H](CN2CCOCC2)NC(=O)CSC[C@@H](C(=O)NCC(N)=O)NC1=O` [Example 423] ({CH2CO}-[Ala(morpholin-4-yl)][Bip][Bip(4'-NH)](Indazole3carbonyl(1-CH2COOH))[Sar]PD[X29]VPVRLCG-NH2; thioether N-13) was tested, and the pIC50 was greater than 7.30.
`CNC(=O)c1ccc(-c2ccc(C[C@@H]3NC(=O)[C@H](CN4CCOCC4)NC(=O)CSC[C@@H](C(=O)NCC(N)=O)NC(=O)[C@H](CC(C)C)NC(=O)[C@H](CCCNC(=N)N)NC(=O)[C@H](C(C)C)NC(=O)[C@@H]4CCCN4C(=O)[C@H](C(C)C)NC(=O)[C@@H](CCCNC(=N)NCCc4ccc(F)c(F)c4)NC(=O)[C@H](CC(=O)O)NC(=O)[C@@H]4CCCN4C(=O)CN(C)C(=O)[C@H](Cc4ccc(-c5ccc(NC(=O)c6nn(CC(=O)O)c7ccccc67)cc5)cc4)NC3=O)cc2)cc1` [Example 424] ({CH2CO}-[Ala(morpholin-4-yl)][Bip(4'-CONHMe)][Bip(4'-NH)](Indazole3carbonyl(1-CH2COOH))[Sar]PD[X29]VPVRLCG-NH2; thioether N-13) showed a pIC50 of 6.70 to 7.30.
